# According to US12544392B2, “Treatment of adenovirus infection or disease associated with adenovirus infection” (SymBio Pharmaceuticals Limited, priority 2023, dated 2026):
# Tests used:
# adenovirus (AdV) = experiment: Human clinical study of once-weekly IV BCV (Example 4): viral load of AdV in plasma; type: in vivo; conditions: cohorts 4-6: 0.4, 0.6 or 0.8 mg/kg (20, 30 or 40 mg/dose if body weight ≥50 kg) IV once weekly
# Description: A human clinical study on the treatment of AdV infectious disease is conducted according to the following procedure. Patients aged 2 months or older who have asymptomatic AdV infection or AdV disease and have an underlying immunocompromised state, including hematopoietic stem cell transplant recipients before the immune reconstitution by the graft cells is achieved, organ transplant recipients on medication with an immunosuppressant, and patients with immunodeficiency syndrome. […] For patients who, at the physician's discretion, are assessed as being at high risk for AdV infection/recurrence of disease, the treatment period may be extended for up to 10 weeks, even after the 4-week treatment period is completed, if the AdV is not detected by the two most recent consecutive assays with an interval of 3 days at least. […] Adverse events are evaluated according to the National Cancer Institute Common Terminology Criteria for Adverse Events (NCI CTCAE) version 5.0 (grade 1-5). […]
# [1] = Analysis of lymphocytes: absolute lymphocyte count of a patient in cohort 3; type: in vivo, human; conditions: patient 110-05 in cohort 3 (0.4 mg/kg IV twice weekly)
# From the text: In the clinical study of Example 1, the absolute lymphocyte count in the plasma of the patient 110-05 in cohort 3 was examined.
# [2] = PK of BCV in plasma with or without concomitant cyclosporine; type: in vivo, human; conditions: for increase of AUCinf of BCV in plasma compared with BCV alone / increase of Cmax of BCV in plasma compared with BCV alone: healthy subjects
# From the text: Subjects 101-12 of cohort 2, and 101-15, 101-18 and 110-06 of cohort 3 took cyclosporine, an immunosuppressive drug, during the treatment period (duration of treatment) of intravenous BCV. Prior PK studies in healthy subjects have shown a significant increase in plasma BCV exposure with concomitant intravenous infusion of BCV and cyclosporine. […] In view of the above, for the above patients taking cyclosporine, any of the doses indicated in 1.1.3 (cohorts 1-3) above is reduced to 60% for administration. Note that when cyclosporine is administered as BID (twice daily) oral or injectable form, the administration is conducted with an interval of 2 hours after the completion of intravenous BCV. In the case of continuous infusion of cyclosporine for 24 hours, no interval is needed.
# Prior PK studies in healthy subjects have shown a significant increase in plasma BCV exposure with concomitant intravenous infusion of BCV and cyclosporine. […] In view of the above, for the above patients taking cyclosporine, any of the doses indicated in 4.1.3 (cohorts 4-6) above is reduced to 60% for administration. Note that when cyclosporine is administered as BID (twice daily) oral or injectable form, the administration is conducted with an interval of 2 hours after the completion of intravenous BCV. In the case of continuous infusion of cyclosporine for 24 hours, no interval is needed.
# [3] = BCV IV and cyclosporine administered simultaneously
# [4] = cyclosporine administered at 2 hours after the end of intravenous BCV infusion over 2 hours
smiles,measurement,setting,value
"CCCCCCCCCCCCCCCCOCCCOP(=O)(O)CO[C@H](CO)Cn1ccc(N)nc1=O [BCV, [(2S)-1-(4-amino-2-oxopyrimidin-1-yl)-3-hydroxypropan-2-yl]oxymethyl-(3-hexadecoxypropoxy)phosphinic acid]",levels of viral load of AdV during the study period,adenovirus (AdV),reaches below the LOD
same,number of lymphocytes (absolute lymphocyte count),[1],tended to increase
same,"AUCinf and Cmax of BCV in plasma, cohort 3 patients versus healthy controls",[2]; BCV administered alone,substantially the same
same,increase of AUCinf of BCV in plasma compared with BCV alone,[2]; [3],approximately 3.4 fold
same,increase of Cmax of BCV in plasma compared with BCV alone,[2]; [3],~2.3 fold
same,increase of AUCinf of BCV in plasma compared with BCV alone,[2]; [4],approximately 1.8 fold
same,increase of Cmax of BCV in plasma compared with BCV alone,[2]; [4],~1.3 fold
same,effect of cyclosporine administration on the blood concentration of BCV,"[2]; statement in the embodiments, no test described",does not affect
